Results on 6 compounds are retold here after patent US20100203126A1 (priority 2007, published 2010).

Series [1] in a line: Stability test for ubidecarenone and vitamins/minerals under co-existence, mixed 1:1. The format is physicochemical. To be noted: for % residual amount of ubidecarenone: mixed 1:1, 40±2° C., 75±5 RH %; for effect of ingredient on stability of ubidecarenone: each ingredient singly mixed with ubidecarenone (Table 26).
Series [2] is described as follows: Stability test for ubidecarenone and vitamins/minerals under co-existence at typical formulation ratio. In kind it is physicochemical. Particulars: ubidecarenone 50 mg, accelerated stability test.
For series [3] the following is noted: cited from earlier work.
The nature of series [4]: Stability test for ubidecarenone according to content of 90% ascorbic acid. To be noted: text summary of Table 28. The format is physicochemical. From the text: The results are as follows.

Like-named read-outs stand apart in the source and are kept apart here.

As to `COC1=C(OC)C(=O)C(C/C=C(\C)CC/C=C(\C)CC/C=C(\C)CC/C=C(\C)CC/C=C(\C)CC/C=C(\C)CC/C=C(\C)CC/C=C(\C)CC/C=C(\C)CCC=C(C)C)=C(C)C1=O` [Ubidecarenone], the “% residual amount of ubidecarenone” value in series [1] (2 weeks) came out at 99.2%; in series [1] (initial (regarded as 100.0%)), 100%. The “residual amount of ubidecarenone, 2 weeks (%)” value in series [2] (2 weeks) is recorded as 99.2%. Also, the “residual amount of ubidecarenone, Initial (%)” value in series [2] (initial) is 100%. Moreover, the solubility result in series [3] (in alcohol) was “insoluble”; in series [3] (in ether), “highly soluble”; in series [3] (in water), “insoluble”.

For the compound `CC(=O)Oc1c(C)c(C)c2c(c1C)CCC(C)(CCC[C@H](C)CCC[C@H](C)CCCC(C)C)O2` (stereo partly drawn) [alpha-tocopherol acetate], in series [1], the “effect of ingredient on stability of ubidecarenone” value (“effect of ingredient” below) was “excessively reduce the stability of ubidecarenone”.

For `O=C1O[C@H]([C@@H](O)CO)C(O)=C1O` [ascorbic acid], the “residual amount of ubidecarenone as content of ascorbic acid in sample tablet increases” value in series [4] was “remarkably reduced”.

Regarding `C[N+](C)(C)CCO.O=C([O-])C(O)C(O)C(=O)O` (stereo not drawn) [choline bitartrate], the “effect of ingredient” value in series [1] was “excessively reduce the stability of ubidecarenone”.

As for `C=C1CC[C@H](O)C/C1=C/C=C1\CCC[C@]2(C)[C@@H]([C@H](C)CCCC(C)C)CC[C@@H]12` [dried cholecalciferol], in series [1], the “effect of ingredient” value is “excessively reduce the stability of ubidecarenone”.

For the compound `CCCCCCCCCCCCCCCC(=O)OC/C=C(C)/C=C/C=C(C)/C=C/C1=C(C)CCCC1(C)C` [retinol palmitate], the “effect of ingredient” value in series [1] is “excessively reduce the stability of ubidecarenone”.
